Assay: xn = mol fraction of the nth substance listed
Conditions: Liquid, Vibrating tube method

CCCCCCCCCC [decane] + CCCCCCC
Conditions | mass density [kg/m3]
313.18 K, 10000 kPa, x2 = 0.5219 | 703.05
313.18 K, 10000 kPa, x2 = 0.777 | 690.24
313.18 K, 10990 kPa, x2 = 0.5219 | 703.9
313.18 K, 10990 kPa, x2 = 0.777 | 691.12
313.18 K, 12000 kPa, x2 = 0.5219 | 704.76
313.18 K, 12000 kPa, x2 = 0.777 | 692.05
313.18 K, 13000 kPa, x2 = 0.5219 | 705.6
313.18 K, 13000 kPa, x2 = 0.777 | 692.92
313.18 K, 14000 kPa, x2 = 0.5219 | 706.44
313.18 K, 14000 kPa, x2 = 0.777 | 693.78
313.18 K, 15000 kPa, x2 = 0.5219 | 707.25
313.18 K, 15000 kPa, x2 = 0.777 | 694.64
313.18 K, 16000 kPa, x2 = 0.5219 | 708.05
313.18 K, 16000 kPa, x2 = 0.777 | 695.5
313.18 K, 17000 kPa, x2 = 0.5219 | 708.84
313.18 K, 17000 kPa, x2 = 0.777 | 696.33
313.18 K, 18000 kPa, x2 = 0.5219 | 709.64
313.18 K, 18000 kPa, x2 = 0.777 | 697.16
313.18 K, 19000 kPa, x2 = 0.5219 | 710.37
313.18 K, 19000 kPa, x2 = 0.777 | 697.97
313.18 K, 20000 kPa, x2 = 0.5219 | 711.12
313.18 K, 20000 kPa, x2 = 0.777 | 698.77
313.18 K, 21000 kPa, x2 = 0.5219 | 711.85
313.18 K, 21000 kPa, x2 = 0.777 | 699.55
313.18 K, 22000 kPa, x2 = 0.5219 | 712.53
313.18 K, 22000 kPa, x2 = 0.777 | 700.31
313.18 K, 23000 kPa, x2 = 0.5219 | 713.24
313.18 K, 23000 kPa, x2 = 0.777 | 701
313.18 K, 24000 kPa, x2 = 0.5219 | 713.92
313.18 K, 24000 kPa, x2 = 0.777 | 701.71
313.18 K, 25000 kPa, x2 = 0.5219 | 714.55
313.18 K, 25000 kPa, x2 = 0.777 | 702.37
323.14 K, 1000 kPa, x2 = 0.5219 | 687.21
323.14 K, 1000 kPa, x2 = 0.952 | 662.62
323.14 K, 2000 kPa, x2 = 0.5219 | 688.12
323.14 K, 2000 kPa, x2 = 0.952 | 663.72
323.14 K, 3000 kPa, x2 = 0.5219 | 689.02
323.14 K, 3000 kPa, x2 = 0.952 | 664.82
323.14 K, 4000 kPa, x2 = 0.5219 | 689.95
323.14 K, 4000 kPa, x2 = 0.952 | 665.9
323.14 K, 5000 kPa, x2 = 0.5219 | 690.88
323.14 K, 5000 kPa, x2 = 0.952 | 666.98
323.14 K, 6000 kPa, x2 = 0.5219 | 691.82
323.14 K, 6000 kPa, x2 = 0.952 | 668.05
323.14 K, 7000 kPa, x2 = 0.5219 | 692.78
323.14 K, 7000 kPa, x2 = 0.952 | 669.1
323.14 K, 8000 kPa, x2 = 0.5219 | 693.71
323.14 K, 8000 kPa, x2 = 0.952 | 670.14
323.14 K, 9000 kPa, x2 = 0.5219 | 694.65
323.14 K, 9000 kPa, x2 = 0.952 | 671.16
323.14 K, 10000 kPa, x2 = 0.5219 | 695.58
323.14 K, 10000 kPa, x2 = 0.952 | 672.17
323.14 K, 10990 kPa, x2 = 0.5219 | 696.5
323.14 K, 10990 kPa, x2 = 0.952 | 673.16
323.14 K, 12000 kPa, x2 = 0.5219 | 697.4
323.14 K, 12000 kPa, x2 = 0.952 | 674.14
323.14 K, 13000 kPa, x2 = 0.5219 | 698.29
323.14 K, 13000 kPa, x2 = 0.952 | 675.1
323.14 K, 14000 kPa, x2 = 0.5219 | 699.17
323.14 K, 14000 kPa, x2 = 0.952 | 676.05
323.14 K, 15000 kPa, x2 = 0.5219 | 700.04
323.14 K, 15000 kPa, x2 = 0.952 | 676.99
323.14 K, 16000 kPa, x2 = 0.5219 | 700.9
323.14 K, 16000 kPa, x2 = 0.952 | 677.91
323.14 K, 17000 kPa, x2 = 0.5219 | 701.74
323.14 K, 17000 kPa, x2 = 0.952 | 678.82
323.14 K, 18000 kPa, x2 = 0.5219 | 702.6
323.14 K, 18000 kPa, x2 = 0.952 | 679.71
323.14 K, 19000 kPa, x2 = 0.5219 | 703.38
323.14 K, 19000 kPa, x2 = 0.952 | 680.59
323.14 K, 20000 kPa, x2 = 0.5219 | 704.18
323.14 K, 20000 kPa, x2 = 0.952 | 681.45
323.14 K, 21000 kPa, x2 = 0.5219 | 704.97
323.14 K, 21000 kPa, x2 = 0.952 | 682.3
323.14 K, 22000 kPa, x2 = 0.5219 | 705.7
323.14 K, 22000 kPa, x2 = 0.952 | 683.13
323.14 K, 23000 kPa, x2 = 0.5219 | 706.43
323.14 K, 23000 kPa, x2 = 0.952 | 683.92
323.14 K, 24000 kPa, x2 = 0.5219 | 707.14
323.14 K, 24000 kPa, x2 = 0.952 | 684.73
323.14 K, 25000 kPa, x2 = 0.5219 | 707.83
323.14 K, 25000 kPa, x2 = 0.952 | 685.51
323.15 K, 1000 kPa, x2 = 0.0531 | 705.96
323.15 K, 1000 kPa, x2 = 0.2594 | 698.56
323.15 K, 2000 kPa, x2 = 0.0531 | 706.92
323.15 K, 2000 kPa, x2 = 0.2594 | 699.45
323.15 K, 3000 kPa, x2 = 0.0531 | 707.86
323.15 K, 3000 kPa, x2 = 0.2594 | 700.3
323.15 K, 4000 kPa, x2 = 0.0531 | 708.79
323.15 K, 4000 kPa, x2 = 0.2594 | 701.18
323.15 K, 5000 kPa, x2 = 0.0531 | 709.69
323.15 K, 5000 kPa, x2 = 0.2594 | 702.06
323.15 K, 6000 kPa, x2 = 0.0531 | 710.58
323.15 K, 6000 kPa, x2 = 0.2594 | 702.96
